Results published in PMC9853328, “Potent Platinum(IV) Prodrugs That Incorporate a Biotin Moiety to Selectively Target Cancer Cells” (Pharmaceutics, 2022).
Like-named read-outs stand apart in the source and are kept apart here.

Key:
[1] = system: ADDP (subclone of A2780) versus A2780 ovarian cancer cell lines; assay: Resistance factor, GI50 in ADDP/GI50 in A2780; assay type: cell-based
HT29 colon cancer cells [2] = system: HT29 colon cancer cells; parameters: method as in earlier work; conditions: MTT, same method, taken from the literature; ref [18],[46],[47]; read-out: GI50 ± SEM, HT29; cited from earlier work
U87 glioblastoma cells [3] = system: U87 glioblastoma cells; parameters: method as in earlier work; conditions: MTT, same method, taken from the literature; ref [18],[46],[47]; read-out: GI50 ± SEM, U87; cited from earlier work
[4] = system: MCF-7 breast cancer cells; parameters: method as in earlier work; conditions: MTT, same method, taken from the literature; ref [18],[46],[47]; read-out: GI50 ± SEM, MCF-7; cited from earlier work
[5] = system: A2780 ovarian cancer cells; parameters: method as in earlier work; conditions: MTT, same method, taken from the literature; ref [18],[46],[47]; read-out: GI50 ± SEM, A2780; cited from earlier work
H460 lung cancer cells [6] = system: H460 lung cancer cells; parameters: method as in earlier work; conditions: MTT, same method, taken from the literature; ref [18],[46],[47]; read-out: GI50 ± SEM, H460; cited from earlier work
A431 skin cancer cells [7] = system: A431 skin cancer cells; parameters: method as in earlier work; conditions: MTT, same method, taken from the literature; ref [18],[46],[47]; read-out: GI50 ± SEM, A431; cited from earlier work
[8] = system: Du145 prostate cancer cells; parameters: method as in earlier work; conditions: MTT, same method, taken from the literature; ref [18],[46],[47]; read-out: GI50 ± SEM, Du145; cited from earlier work
[9] = system: BE2-C neuroblastoma cells; parameters: method as in earlier work; conditions: MTT, same method, taken from the literature; ref [18],[46],[47]; read-out: GI50 ± SEM, BE2-C; cited from earlier work
SJ-G2 glioblastoma cells [10] = system: SJ-G2 glioblastoma cells; parameters: method as in earlier work; conditions: MTT, same method, taken from the literature; ref [18],[46],[47]; read-out: GI50 ± SEM, SJ-G2; cited from earlier work
[11] = system: MIA pancreas cancer cells; parameters: method as in earlier work; conditions: MTT, same method, taken from the literature; ref [18],[46],[47]; read-out: GI50 ± SEM, MIA; cited from earlier work
[12] = system: non-cancerous MCF10A breast cell line; parameters: method as in earlier work; conditions: MTT, same method, taken from the literature; ref [18],[46],[47]; read-out: GI50 ± SEM, MCF10A; cited from earlier work
[13] = system: cisplatin-resistant ADDP ovarian (subclone of A2780) cancer cells; parameters: method as in earlier work; conditions: MTT, same method, taken from the literature; ref [18],[46],[47]; read-out: GI50 ± SEM, ADDP; cited from earlier work
HT29 colon cancer cells [14] = assay: MTT in vitro cytotoxicity assay, HT29; assay type: cell-based; conditions: Homo sapiens, HT-29; MTT, 72 h drug exposure, n = 3; read-out: GI50 ± SEM, HT29
Experimental: (§1) The in vitro cytotoxicity assays were undertaken at Calvary Mater Hospital, Waratah, NSW, Australia, following a method previously published in the literature. A stock solution for each compound was prepared in DMSO (30 mM) and stored at −20 °C. The cell lines used in the study include HT29 colon, U87 glioblastoma, MCF-7 breast, A2780 ovarian, H460 lung, A431 skin, Du145 prostate, BE2-C neuroblastoma, SJ-G2 glioblastoma, MIA pancreas, and cisplatin-resistant ADDP ovarian (subclone of A2780) cancer cells, as well as the non-cancerous-derived MCF10A breast cell line. The cancer cell lines were cultured in a humidified atmosphere 5% CO2 at 37 °C and maintained in Dulbecco’s modified Eagle’s medium (Trace Biosciences, Sydney, Australia), supplemented with 10% foetal bovine serum, sodium bicarbonate (10 mM), penicillin (100 IU/mL), streptomycin (100 µg/mL), and glutamine (4 mM). The non-cancerous MCF10A cell line was maintained in DMEM:F12 (1:1) cell culture media, with 5% heat inactivated horse serum, supplemented with penicillin (50 IU/mL), streptomycin (50 µg/mL), glutamine (2 mM), HEPES (20 mM), epidermal growth factor (20 ng/mL), hydrocortisone (500 ng/mL), cholera toxin (100 ng/mL), and insulin (10 µg/mL). Cells were plated in duplicate in medium (100 µL) at a density of 2500–4000 cells per well in 96-well plates. On day 0, (24 h after plating) when the cells were in logarithmic growth, medium (100 μL) with or without the test agent was added to each well. The growth inhibitory effects were evaluated after 72 h drug exposure, using the MTT (3-(4,5-dimethylthiazol-2-yl)-2,5-diphenyltetrazolium bromide) assay, with the absorbance read at 540 nm. An eight-point dose–response curve was produced, which was used to determine the concentration at which growth was inhibited by 50% (GI50). This calculation was based on the difference between the optical density values on day 0 and those at the end of drug exposure. […] Experiments were conducted on three separate occasions and GI50 values were reported as the mean and standard error of the mean.

U87 glioblastoma cells [15] = assay: MTT in vitro cytotoxicity assay, U87; assay type: cell-based; conditions: 72 h drug exposure, n = 3, read-out: GI50 ± SEM, U87
Experimental: as §1

[16] = system: MCF-7 breast cancer cells; assay: MTT in vitro cytotoxicity assay, MCF-7; assay type: cell-based; conditions: Homo sapiens, MCF7; MTT, 72 h drug exposure, n = 3; read-out: GI50 ± SEM, MCF-7
[17] = system: A2780 ovarian cancer cells; assay: MTT in vitro cytotoxicity assay, A2780; assay type: cell-based; conditions: Homo sapiens, A2780, 72 h drug exposure, n = 3, read-out: GI50 ± SEM, A2780
Experimental: as §1

H460 lung cancer cells [18] = assay: MTT in vitro cytotoxicity assay, H460; assay type: cell-based; conditions: Homo sapiens, NCI-H460, 72 h drug exposure, n = 3, read-out: GI50 ± SEM, H460
Experimental: as §1

A431 skin cancer cells [19] = assay: MTT in vitro cytotoxicity assay, A431; assay type: cell-based; conditions: Homo sapiens, A-431, 72 h drug exposure, n = 3, read-out: GI50 ± SEM, A431
Experimental: as §1

[20] = system: Du145 prostate cancer cells; assay: MTT in vitro cytotoxicity assay, Du145; assay type: cell-based; conditions: Homo sapiens, DU-145; MTT, 72 h drug exposure, n = 3; read-out: GI50 ± SEM, Du145
Experimental: as §1

[21] = system: BE2-C neuroblastoma cells; assay: MTT in vitro cytotoxicity assay, BE2-C; assay type: cell-based; conditions: Homo sapiens, BE(2)-C, 72 h drug exposure, n = 3, read-out: GI50 ± SEM, BE2-C
Experimental: as §1

SJ-G2 glioblastoma cells [22] = assay: MTT in vitro cytotoxicity assay, SJ-G2; assay type: cell-based; conditions: SJ-G2, 72 h drug exposure, n = 3, read-out: GI50 ± SEM, SJ-G2
Experimental: as §1

[23] = system: MIA pancreas cancer cells; assay: MTT in vitro cytotoxicity assay, MIA; assay type: cell-based; conditions: 72 h drug exposure, n = 3, read-out: GI50 ± SEM, MIA
Experimental: as §1

[24] = system: non-cancerous MCF10A breast cell line; assay: MTT in vitro cytotoxicity assay, MCF10A; assay type: cell-based; conditions: Homo sapiens, MCF-10A, 72 h drug exposure, n = 3, read-out: GI50 ± SEM, MCF10A
Experimental: as §1

[25] = system: cisplatin-resistant ADDP ovarian (subclone of A2780) cancer cells; assay: MTT in vitro cytotoxicity assay, ADDP; assay type: cell-based; conditions: Homo sapiens, A2780, 72 h drug exposure, n = 3, read-out: GI50 ± SEM, ADDP
Experimental: as §1

Row | SMILES | Resistance factor (RF) [1] | GI50 (HT29 colon cancer cells [2]) | GI50 (U87 glioblastoma cells [3]) | GI50 [4] | GI50 [5] | GI50 (H460 lung cancer cells [6]) | GI50 (A431 skin cancer cells [7]) | GI50 [8] | GI50 [9] | GI50 (SJ-G2 glioblastoma cells [10]) | GI50 [11] | GI50 [12] | GI50 [13] | other results
1 | Cc1c(C)c2ccc[n+]3c2c2c1ccc[n+]2[Pt-2]31[NH2+][C@H]2CCCC[C@@H]2[NH2+]1.[Cl-].[Cl-] [56MESS(II)] | 0.692 | 0.015 ± 0.0062 µM | 0.076 ± 0.0087 µM | 0.033 ± 0.012 µM | 0.039 ± 0.0077 µM | 0.028 ± 0.0047 µM | 0.036 ± 0.011 µM | 0.01 ± 0.0013 µM | 0.086 ± 0.003 µM | 0.15 ± 0.0067 µM | 0.022 ± 0.00088 µM | 0.025 ± 0.01 µM | 0.027 ± 0.0041 µM | 
2 | Cc1c(C)c2ccc[n+]3c2c2c1ccc[n+]2[Pt-2]31([OH])([OH])[NH2+][C@H]2CCCC[C@@H]2[NH2+]1.O=[N+]([O-])[O-].O=[N+]([O-])[O-] [56MESS(IV)] | 3.036 | 0.036 ± 0.0071 µM | 0.19 ± 0.023 µM | 0.48 ± 0.14 µM | 0.056 ± 0.0071 µM | 0.19 ± 0.15 µM | 0.12 ± 0.022 µM | 0.015 ± 0.0026 µM | 0.24 ± 0.022 µM | 0.21 ± 0.045 µM | 0.043 ± 0.0025 µM | 0.061 ± 0.0073 µM | 0.17 ± 0.12 µM | 
3 | O=C(O)CCCC[C@@H]1SC[C@@H]2NC(=O)N[C@@H]21 [Biotin, biotin] |  |  |  |  |  |  |  |  |  |  |  |  |  | GI50 (HT29 colon cancer cells [14]): > 50 µM; GI50 (U87 glioblastoma cells [15]): > 50 µM; GI50 [16]: > 50 µM; GI50 [17]: > 50 µM; GI50 (H460 lung cancer cells [18]): > 50 µM; GI50 (A431 skin cancer cells [19]): > 50 µM; GI50 [20]: > 50 µM; GI50 [21]: > 50 µM; GI50 (SJ-G2 glioblastoma cells [22]): > 50 µM; GI50 [23]: > 50 µM; GI50 [24]: > 50 µM; GI50 [25]: > 50 µM
4 | N.N.O=C([O-])C1(C(=O)[O-])CCC1.[Pt+2] [Carboplatin, carboplatin] |  | > 50 µM | > 50 µM | > 50 µM | 9.2 ± 2.9 µM | 14 ± 1 µM | 24.3 ± 2.2 µM | 14.7 ± 1.2 µM | 18.7 ± 1.2 µM | 5.7 ± 0.2 µM | > 50 µM | > 50 µM | > 50 µM | 
5 | O=C1[O][Pt]2([NH][C@@H]3CCCC[C@H]3[NH]2)[O]C1=O [Oxaliplatin, oxaliplatin] | 5.138 | 0.9 ± 0.2 µM | 1.8 ± 0.2 µM | 0.5 ± 0.1 µM | 0.16 µM | 1.6 ± 0.1 µM | 4.1 ± 0.5 µM | 2.9 ± 0.4 µM | 0.9 ± 0.2 µM | 3 ± 1.2 µM | 0.9 ± 0.2 µM |  | 0.822 ± 0.13 µM | 
